The nature of data set [1]: Stability and reactivity of model substrates and probes in cell lysates. The note with it: human, pH 8.5.
Data set [2] in a line: Bioorthogonality of the fluorine-thiol displacement reaction: incubation with glutathione or cysteine (1H NMR). In kind it is physicochemical. The settings on record: 25 mM each, pH 8.5, 37° C., 24 h. The procedure: Bioorthogonality of the Fluorine-Thiol Displacement Reaction (FIG. 30) The common substrate 2-fluoro-N-phenethylacetamide (compound (3)) was dissolved in MeOD as a 10× stock solution (250 mM). Sixty microliter of the stock was mixed with another 60 μL of either the reduced glutathione or cysteine 10× stock solution (250 mM in D2O). The mixture was added with additional deuterated solvents (1:1 mix of deuterated sodium phosphate buffer and MeOD) to make a final volume of 600 μL (pH adjusted to 8.5). The resulting solution was incubated at 37° C. water bath for 24 h, and then analyzed by ^1H NMR spectroscopy.

Data set [3] deals with MYST2 (Homo sapiens, UniProt O95251). The experiment in a line: Acetyltransferase assay with acetyl-CoA analogs and H4 (1-20) peptide (MS). The note with it: MYST2 with H4 (1-20) peptide, mass spectrometric analysis.
Data set [4] deals with GCN5 (Homo sapiens, UniProt Q92831). The experiment in a line: Acetyltransferase assay with acetyl-CoA analogs and H3 (1-20) peptide (MS). The settings on record: GCN5 with H3 (1-20) peptide, mass spectrometric analysis.
Data set [5] deals with TIP60 (Homo sapiens, UniProt Q92993). Nature of the data set: Acetyltransferase assay with acetyl-CoA analogs and H4 (1-20) peptide (MS). The note with it: TIP60 with H4 (1-20) peptide, mass spectrometric analysis.
The nature of data set [6]: Hydrolysis of acetyl CoA and fluoroacetyl CoA (DTNB). The settings on record: 10 μM, 100 mM Tris buffer (pH 7.2). Format: physicochemical. The procedure: Hydrolysis of Acetyl CoA and Fluoroacetyl CoA: The hydrolysis rate of acetyl-CoA and fluoroacetyl CoA were measured in a similar manner to reported procedures (Weeks A M et al., 2010, Biochemistry, 49:9269-9279; Wagner G R et al., 2017, Cell Metab., 25:823-837). Briefly, 10 μM of the acetyl or fluoroacetyl CoA was incubated in 100 mM Tris buffer mixed with 0.5 mM DTNB, pH 7.2. The increase in the solution's absorbance at 412 nm was recorded, as a result of the reaction between DTNB and the free thiol in the released CoA hydrolysis product. A CoA standard curve was generated by measuring the absorbance of serially diluted CoA stock (200 μM) in the same assay buffer.

The nature of data set [7]: Measurement of FTDR reaction kinetics. Format: physicochemical. The settings on record: DMF/Tris buffer (70/30), pH 8.5, 37° C.; 40, 80, 160 mM; average of three experiments. On the procedure:
Measurement of Reaction Kinetics: Reaction kinetics were evaluated similarly to reported procedures (Addy P S et al., 2017, J. Am. Chem. Soc., 139:11670-11673; Sundhoro M et al., 2017, Angew. Chem. Int. Ed. Engl., 56:12117-12121.). Stock solutions of substrate (3) and nucleophiles were prepared in DMF, while TCEP stock (pH 7.4) was dissolved in H2O. Equal concentrations (40 mM, 80 mM, or 160 mM) of the substrate and the nucleophile (3,4,5-trimethoxybenzenethiol or 2,4,6-trimethoxybenzenethiol) were mixed in 40 μL of DMF/Tris buffer (70/30). Over excess amount of TCEP (100 mM, 200 mM, or 400 mM) was added, and the final pH of the mixture was adjusted to 8.5 to initiate the reaction at 37° C. Time dependent measurements were carried out by taking 2 μL of the reaction mixture at indicated time points (30 min, 60 min, 90 min, 120 min, 150 min, 180 min), and mixing it with 18 μL 0.5% TFA/ACN to quench the reaction. The samples were eventually analyzed by LC/MS and the concentrations of product and reactant were determined by comparing peak area ratios with those of the standard curves. […]; t: reaction time; [X]t: concentration of either reactant at time t).

Data set [8] deals with DLD-1 cells. The note with it: then 10 μM peptide 4 h; for Mean Intensity Ratio, no pathway blocker: DLD-1 cells pretreated with solvent vehicle only, normalized as 1; for Mean Intensity Ratio, Chlorpromazine / Mean Intensity Ratio, Cytochalasin D / Mean Intensity Ratio, Nystatin / Mean Intensity Ratio, NaClO3: DLD-1 cells, ratio to no blocker; for Mean Intensity Ratio, Chlorpromazine: 1 h 5 μg/mL chlorpromazine (clathrin-dependent endocytosis); for Mean Intensity Ratio, Cytochalasin D: 1 h 10 μg/mL cytochalasin D (actin polymerization); for Mean Intensity Ratio, Nystatin: 1 h 25 μg/mL nystatin (caveolin-mediated endocytosis); for Mean Intensity Ratio, NaClO3: 1 h 80 mM NaClO3 (proteoglycan synthesis). On the procedure:
Images were analyzed with NIH ImageJ software. […] Particles in the extracellular matrix that the “analyze particle” function selected were manually deselected and removed from the data set (FIG. 58B).
After this, the FITC-labelled peptide analogues were added at a final concentration of 10 μM, and the mixture was incubated at 37° C./5% CO2 for 4 h. […] After another round of washing, cells were imaged in the buffer as aforementioned. Subsequent CellTiter-Glo viability measurements were also performed right after confocal imaging.

In data set [9] the test system is DLD-1 cells. Nature of the data set: Cell penetration assay of FITC-labelled Axin analogues (confocal imaging). The note with it: for cellular uptake by confocal fluorescence microscopy (in words): 10 μM; for Mean Intensity Ratio (cell penetration): 10 μM FITC-labelled peptide, 12 h, intracellular intensity of peptide 51 normalized as 1. In kind it is cell-based.
Procedure: Cell Penetration Assay: DLD-1 cells were seeded on 35 mm optical dishes at 3e5 per well and were incubated overnight at 37° C./5% CO2. […] Cells were imaged in buffer mimicking the physiological conditions in the cytoplasm (20 mM HEPES, 110 mM KOAc, 5 mM NaOAc, 2 mM MgOAc, 1 mM EGTA, pH 7.3).
For data set [10], the system named is DLD-1 cells. The settings on record: 10 μM, 12 h.
Procedure: Cell Viability Assay: Wild type DLD-1 cells were cultured in complete growth media (RPMI, 10% FBS and 1% penicillin/streptomycin) at 37° C./5% CO2. After harvesting, cells were placed onto 96-well flat bottom white plates at 10e4 cells/well, and were incubated overnight. […] The chemiluminescent signals from the control sample (treated with 0 μM peptides) were used as the 100% control. […] For DLD-1 cells, after confocal imaging for the penetration pathway studies, viability measurements were carried out similarly via directly mixing with the CellTiter-Glo reagent. Cells treated with vehicle groups were also analyzed and counted as the 100% control.
Data set [11] can be described thus: in vitro. The settings on record: human, pH 8.5.
Data set [12] deals with T1, beta-catenin protein (Abcam, ab63175) (UniProt P35222 1-781, limits assumed).
T1 construct: Bought protein coated on the ELISA plate; also called β-catenin; target protein β-catenin
T1 sequence (looked up): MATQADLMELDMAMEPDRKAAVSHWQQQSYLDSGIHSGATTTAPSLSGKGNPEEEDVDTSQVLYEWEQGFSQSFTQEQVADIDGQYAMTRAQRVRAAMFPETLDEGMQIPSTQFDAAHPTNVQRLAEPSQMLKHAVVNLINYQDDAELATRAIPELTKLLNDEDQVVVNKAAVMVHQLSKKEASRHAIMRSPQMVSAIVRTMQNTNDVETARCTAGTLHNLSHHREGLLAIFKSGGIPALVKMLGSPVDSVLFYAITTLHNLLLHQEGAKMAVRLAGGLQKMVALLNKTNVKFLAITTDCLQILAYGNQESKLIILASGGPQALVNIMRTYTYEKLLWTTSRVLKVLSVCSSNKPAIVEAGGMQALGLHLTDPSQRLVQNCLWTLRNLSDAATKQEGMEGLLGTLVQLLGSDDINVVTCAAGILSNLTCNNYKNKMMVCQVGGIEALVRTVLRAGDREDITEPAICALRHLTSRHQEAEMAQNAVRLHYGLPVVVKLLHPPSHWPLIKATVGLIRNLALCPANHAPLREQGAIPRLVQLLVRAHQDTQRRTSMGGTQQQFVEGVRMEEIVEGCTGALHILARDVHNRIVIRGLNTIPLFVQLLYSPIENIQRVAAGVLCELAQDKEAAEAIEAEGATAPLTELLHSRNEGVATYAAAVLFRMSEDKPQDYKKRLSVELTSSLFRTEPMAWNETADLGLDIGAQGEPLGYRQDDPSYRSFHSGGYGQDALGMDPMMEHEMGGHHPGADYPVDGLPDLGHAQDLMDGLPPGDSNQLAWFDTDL
Nature of the data set: ELISA; beta-catenin coated on plate. (An ELISA detects its analyte on a solid surface through an enzyme-linked reagent.)

Nine molecules from patent US20230138393A1, “LINKING AMINO ACID SEQUENCES, MANUFACTURING METHOD THEREOF, AND USE THEREOF” (priority 2020, published 2023) can be followed below.

Entries after “also recorded” stand apart in the source; their conditions may differ. [ ]: non-standard residue; d: D form. The star is where a group is joined. FITC = O=C1OC2(c3ccc(O)cc3Oc3cc(O)ccc32)c2ccc(NC(=S)*)cc21; Dap = NC[C@H](N)C(=O)O

MYST2, sequence (O95251 whole entry): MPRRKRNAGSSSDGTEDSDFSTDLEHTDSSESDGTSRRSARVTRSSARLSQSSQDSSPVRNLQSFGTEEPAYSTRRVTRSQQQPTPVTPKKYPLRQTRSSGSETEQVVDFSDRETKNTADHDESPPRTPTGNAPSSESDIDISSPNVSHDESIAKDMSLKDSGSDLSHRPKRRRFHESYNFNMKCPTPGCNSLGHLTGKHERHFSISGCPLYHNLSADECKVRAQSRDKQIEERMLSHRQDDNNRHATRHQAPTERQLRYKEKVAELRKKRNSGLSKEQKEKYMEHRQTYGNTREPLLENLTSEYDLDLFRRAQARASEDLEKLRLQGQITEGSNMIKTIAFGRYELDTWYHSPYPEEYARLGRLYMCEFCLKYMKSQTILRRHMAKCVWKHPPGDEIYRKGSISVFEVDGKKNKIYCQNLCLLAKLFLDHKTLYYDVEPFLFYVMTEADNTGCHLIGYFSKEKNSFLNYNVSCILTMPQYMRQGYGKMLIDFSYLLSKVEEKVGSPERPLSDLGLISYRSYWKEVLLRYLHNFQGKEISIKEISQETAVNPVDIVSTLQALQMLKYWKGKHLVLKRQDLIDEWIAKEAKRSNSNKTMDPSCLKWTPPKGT
GCN5, sequence (Q92831 492-658 limits assumed): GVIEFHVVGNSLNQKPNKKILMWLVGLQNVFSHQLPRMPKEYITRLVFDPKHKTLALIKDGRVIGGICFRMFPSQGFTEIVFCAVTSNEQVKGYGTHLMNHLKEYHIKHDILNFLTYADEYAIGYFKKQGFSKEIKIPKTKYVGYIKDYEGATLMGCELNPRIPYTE
TIP60, sequence (Q92993 whole entry): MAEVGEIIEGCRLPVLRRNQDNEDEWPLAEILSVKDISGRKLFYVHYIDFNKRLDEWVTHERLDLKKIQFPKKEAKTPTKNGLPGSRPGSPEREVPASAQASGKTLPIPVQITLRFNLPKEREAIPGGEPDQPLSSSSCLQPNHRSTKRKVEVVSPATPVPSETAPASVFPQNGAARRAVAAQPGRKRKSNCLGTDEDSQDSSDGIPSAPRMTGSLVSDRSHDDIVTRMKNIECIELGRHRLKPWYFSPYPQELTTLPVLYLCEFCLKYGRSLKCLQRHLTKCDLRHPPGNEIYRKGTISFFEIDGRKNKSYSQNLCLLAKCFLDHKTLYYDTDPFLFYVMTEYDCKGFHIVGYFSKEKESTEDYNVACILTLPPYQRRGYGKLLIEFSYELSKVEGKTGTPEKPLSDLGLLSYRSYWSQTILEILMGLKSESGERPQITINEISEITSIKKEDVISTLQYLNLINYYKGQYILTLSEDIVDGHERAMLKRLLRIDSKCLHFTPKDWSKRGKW

In [1], `O=C(CF)NCCc1ccccc1` [Peptide 3] displayed a recovery at 14 h, 1 mM of 100%. In [2], the reactivity with cysteine result is given as “no reaction was observed; also recorded: stable” and the reactivity with glutathione result was “no reaction was observed; also recorded: stable”.

On to `C#CCCC(=O)SCCNC(=O)CCNC(=O)[C@H](O)C(C)(C)COP(=O)(O)OP(=O)(O)OCC1OC(n2cnc3c(N)ncnc32)C(O)C1OP(=O)(O)O` (stereo partly shown) [Peptide 4-PY-CoA, 4-pentynoyl CoA], for which the “labelling of histone peptide substrate by acetyltransferase” value (from here on “labelling of histone peptide substrate”) in data set [3], in data set [4] and in [5] was “failed to incorporate” each time.

As for `CC(C)(COP(=O)(O)OP(=O)(O)OCC1OC(n2cnc3c(N)ncnc32)C(O)C1OP(=O)(O)O)[C@@H](O)C(=O)NCCC(=O)NCCSC(=O)CF` (stereo partly shown) [F-Ac-CoA, fluoroacetyl-CoA], the “labelling of histone peptide substrate” value in [3], in data set [4] and in data set [5] was “successful acetyl or acetyl analog labelling” throughout. For the same molecule, the “pseudo-first-order rate constant of hydrolysis” value in [6] worked out at 0.0075 s⁻¹.

For the molecule `COc1cc(S)cc(OC)c1OC` [Peptide 12], in [7], the “second order rate constant of FTDR reaction with (3) (2-fluoro-N-phenethylacetamide)” value is reported as “(0.37±0.06)×10^−3 M^−1 S^−1”.

Consider `CC[C@H](C)[C@@H]1NC(=O)[C@@H](NC(=O)[C@H](CCC(N)=O)NC(=O)[C@@H]2CCCN2C(=O)[C@H](Cc2c[nH]c3ccccc23)NC(=O)[C@H](CCCNC(=N)N)NC(=O)COCCOCCNC(=S)Nc2ccc3c(c2)C(=O)OC32c3ccc(O)cc3Oc3cc(O)ccc32)CNC(=O)CSCc2cccc(c2)CSCC(=O)NC[C@H](C(=O)N[C@@H](Cc2c[nH]cn2)C(=O)N[C@H](C(=O)N[C@@H](CCCNC(=N)N)C(=O)N[C@@H](CCCNC(=N)N)C(=O)N[C@H](C(=O)N[C@@H](Cc2c[nH]c3ccccc23)C(=O)N[C@@H](CCCNC(=N)N)C(N)=O)C(C)C)C(C)C)NC(=O)[C@H](CC(=O)O)NC(=O)[C@H](CC(C)C)NC1=O` [Peptide 50], for which, in [8], the “Mean Intensity Ratio, no pathway blocker” value was determined as 1.00 ± 0.02; the “Mean Intensity Ratio, Chlorpromazine” value amounted to 0.16 ± 0.01; the “Mean Intensity Ratio, Cytochalasin D” value was found to be 0.99 ± 0.02; the “Mean Intensity Ratio, Nystatin” value amounted to 0.17 ± 0.01. The “Mean Intensity Ratio, NaClO3” value in [8] stood at 0.20 ± 0.01. In [9], the “cellular uptake by confocal fluorescence microscopy (in words)” value is given as “significant cellular uptake” and the “Mean Intensity Ratio (cell penetration)” value worked out at 5.05±0.14. Also, in data set [10], the “effect on cell viability” value was “did not affect the viability”.

Take `CC(=O)SCCNC(=O)CCNC(=O)[C@H](O)C(C)(C)COP(=O)(O)OP(=O)(O)OC[C@H]1O[C@@H](n2cnc3c(N)ncnc32)[C@H](O)[C@@H]1OP(=O)(O)O` [Ac-CoA, acetyl-CoA]: the “labelling of histone peptide substrate” value in data set [3], in [4] and in data set [5] was “successful acetyl or acetyl analog labelling” in each case. In addition, the “pseudo-first-order rate constant of hydrolysis” value in data set [6] came out at 0.0002 s⁻¹.

Consider `COc1cc(OC)c(S)c(OC)c1` [Peptide 13], for which, in data set [11], the recovery at 14 h, 1 mM turned out to be 61.8%. Further, the “second order rate constant of FTDR reaction with (3) (2-fluoro-N-phenethylacetamide)” value in [7] is given as “(1.03±0.06)×10^−3 M^−1 S^−1”.

Turning to `CC[C@H](C)[C@@H]1NC(=O)[C@@H](NC(=O)[C@H](CCC(N)=O)NC(=O)[C@@H]2CCCN2C(=O)[C@H](Cc2c[nH]c3ccccc23)NC(=O)[C@H](CCCNC(=N)N)NC(=O)COCCOCCNC(=S)Nc2ccc3c(c2)C(=O)OC32c3ccc(O)cc3Oc3cc(O)ccc32)CNC(=O)CSCc2cccc(c2)CSCC(=O)NC[C@@H](C(=O)N[C@@H](Cc2c[nH]cn2)C(=O)N[C@H](C(=O)N[C@@H](CCCNC(=N)N)C(=O)N[C@@H](CCCNC(=N)N)C(=O)N[C@H](C(=O)N[C@@H](Cc2c[nH]c3ccccc23)C(=O)N[C@@H](CCCNC(=N)N)C(N)=O)C(C)C)C(C)C)NC(=O)[C@H](CC(=O)O)NC(=O)[C@H](CC(C)C)NC1=O` [Peptide 48], in data set [8], the “Mean Intensity Ratio, no pathway blocker” value was found to be 1.00 ± 0.04; the “Mean Intensity Ratio, Chlorpromazine” value stood at 0.13 ± 0.01; the “Mean Intensity Ratio, Cytochalasin D” value turned out to be 0.10 ± 0.01; the “Mean Intensity Ratio, Nystatin” value stood at 1.16 ± 0.03. The “Mean Intensity Ratio, NaClO3” value in [8] is on record as 0.12 ± 0.01. Also, in data set [9], the “cellular uptake by confocal fluorescence microscopy (in words)” value is on record as “significant cellular uptake” and the “Mean Intensity Ratio (cell penetration)” value is on record as 4.86±0.15. In data set [10], the “effect on cell viability” value is “did not affect the viability”.

B1: FITC labelled fluoroacetamide containing L,L substrate (47), unstapled Axin-derived peptide analogue (peptide)
peptide: {FITC}-RWPQ[Dap](fluoroacetyl)ILD[Dap](fluoroacetyl)HVRRVWR-NH2
notes: also called peptide (47); unstapled peptide (47)
As a reminder, the EC50 is the midpoint of the concentration-response curve. On to B1, for which the concentration for a half-maximal effect (EC50) in [12] was ~300 nM.
